Assay results published in article PMC8389807 (Journal of Medicinal Chemistry, 2021).
Where two headings read alike, the source gives them in different places.

Experiments:
[1] = target: gp120 binding of mAb 2G12 (Human immunodeficiency virus type 1, UniProt P03377); experiment: cell-based; format: cell-based; conditions: HIV-1 NL4.3-infected MT-4 cells, flow cytometry
[2] = test system: EV71 genogroup C4 strain TW/1956/05; experiment: microbe, parasite or virus in culture; format: cell-based; conditions: Enterovirus A, genogroup C4, strain TW/1956/05, RD cells
[3] = test system: EV71 genogroup B5 strain TW/70902/08; experiment: microbe, parasite or virus in culture; format: cell-based; conditions: Enterovirus A, genogroup B5, strain TW/70902/08, RD cells
HIV-1 (NL4.3) [4] = experiment: microbe, parasite or virus in culture; format: cell-based; conditions: Human immunodeficiency virus 1, MT4; MT-4 cells; 50% reduction of virus-induced cytopathic effect
[5] = test system: EV71 genogroup B2 strain 11316; experiment: microbe, parasite or virus in culture; format: cell-based; conditions: Enterovirus A, genogroup B2, strain 11316, RD cells
[6] = target: T1, recombinant HIV-1 IIIB gp120 (Human immunodeficiency virus type 1 group M subtype B, UniProt P03375); experiment: biochemical; format: binding; conditions: SPR, four replicates
T1 construct: purchased ImmunoDx, Woburn, Massachusetts; host or cells: Chinese hamster ovary cells

EV-A71 VP1 (P246S) = format: cell-based
HIV-1 (Ba-L) = experiment: microbe, parasite or virus in culture; format: cell-based; conditions: Human immunodeficiency virus 1, BAL; CCR5-tropic strain, PBMC; read-out: HIV-1 (Ba-L) EC50
in vitro [7] = conditions: human
[8] = test system: enterovirus D68 CU70 strain; experiment: microbe, parasite or virus in culture; format: cell-based; conditions: Enterovirus D, HeLa Rh host cell
rhinovirus 14 = experiment: microbe, parasite or virus in culture; format: cell-based; conditions: Enterovirus; rhinovirus 14, HeLa Rh host cell
in vitro [9] = conditions: human; remark: listed apart in the source
[10] = test system: BrCr Lab Strain of EV-A71; experiment: Antiviral activity against the BrCr lab strain of EV-A71 in RD cells (CPE reduction, MTS/PMS); format: cell-based; conditions: Enterovirus A, EVA71, RD, read-out: EC50
rhinovirus 2 = experiment: microbe, parasite or virus in culture; format: cell-based; conditions: Enterovirus; rhinovirus 2, HeLa Rh host cell
HIV-1 (NL4.3) [11] = experiment: microbe, parasite or virus in culture; format: cell-based; conditions: Human immunodeficiency virus 1; CXCR4-tropic strain, PBMC; read-out: HIV-1 (NL4.3) EC50
[12] = test system: EV71 genogroup C2 strain H08300 461#812; experiment: microbe, parasite or virus in culture; format: cell-based; conditions: Enterovirus A, genogroup C2, strain H08300 461#812, RD cells
[13] = target: gp120 binding of mAb 9305 (Human immunodeficiency virus type 1, UniProt P03377); experiment: cell-based; conditions: HIV-1 NL4.3-infected MT-4 cells, flow cytometry
gp120-CD4 binding = target: T2, gp120-CD4 binding (Human immunodeficiency virus type 1 group M subtype B, UniProt P03375); experiment: biochemical
T2 construct: […]; purchased CD4: Life Technologies Europe, Merelbeke, Belgium; gp120: not restated here (ImmunoDx inferred)

[14] = test system: coxsackievirus B3 Nancy strain; experiment: microbe, parasite or virus in culture; format: cell-based; conditions: Enterovirus B, Vero A host cell
EV-A71 VP1 (S184T) = format: cell-based
EV-A71 VP1 (S184T/P246S) = format: cell-based
[15] = target: gp120 binding of mAb clone 447-52D (Human immunodeficiency virus type 1, UniProt P03377); experiment: Competition with anti-gp120 mAb 447-52D on HIV-1-infected MT-4 cells (flow cytometry); format: cell-based, HIV-1 NL4.3
Description: (§1) We then investigated the putative gp120 binding site for this class of compounds using competition-binding experiments with mAbs directed to different protein regions: (i) human mAb clone 2G12, whose epitope, composed entirely of N-linked glycans, is centered at position N332;[56]
(§2) These tests were carried out in cell culture using CD4^+ MT-4 T cells that express high levels of gp120 on their membrane when they become infected.
anti-mouse mAb). This is background staining or called negative control (NC).
bPositive control. HIV-1 infected cells stained with the first (anti-HIV-1 envelope antibody) and then the
This is the positive control (PC).
Finally, the mannose-specific lectin Hippeastrum hybrid agglutinin

HIV-2 (ROD) = experiment: Anti-HIV-2 activity in MT-4 cells (CPE, MTS/PES); format: cell-based; conditions: Human immunodeficiency virus 2, MT4, MT-4 cells; 50% reduction of virus-induced cytopathic effect; read-out: HIV-2 (ROD) EC50
[16] = target: gp120 binding of mAb clone 9284 (Human immunodeficiency virus type 1, UniProt P03377); experiment: Competition with anti-gp120 mAb 9284 on HIV-1-infected MT-4 cells (flow cytometry); format: cell-based, HIV-1 NL4.3
Description: as §1, §2

Q: Which “2G12 IC50” value [1] does the source give for O=C(CCOCC(COCCC(=O)NC(Cc1c(-c2cc(C(=O)O)cc(C(=O)O)c2)[nH]c2c(-c3cc(C(=O)O)cc(C(=O)O)c3)cccc12)C(=O)O)(COCCC(=O)NC(Cc1c(-c2cc(C(=O)O)cc(C(=O)O)c2)[nH]c2c(-c3cc(C(=O)O)cc(C(=O)O)c3)cccc12)C(=O)O)COCCC(=O)NC(Cc1c(-c2cc(C(=O)O)cc(C(=O)O)c2)[nH]c2c(-c3cc(C(=O)O)cc(C(=O)O)c3)cccc12)C(=O)O)NC(Cc1c(-c2cc(C(=O)O)cc(C(=O)O)c2)[nH]c2c(-c3cc(C(=O)O)cc(C(=O)O)c3)cccc12)C(=O)O (stereo not drawn) [Compound 33] here?
A: did not prevent the binding

Q: What about the IC50 [1] of the same compound?
A: > 100000 nM

Q: What about the EC50 [2] of the same compound?
A: 11 ± 0.2 nM

Q: And the EC50 [3]?
A: 10 ± 1.5 nM

Q: And the EC50 (HIV-1 (NL4.3) [4])?
A: 6 ± 5 nM

Q: And the EC50 [5]?
A: 101 ± 11 nM

Q: What about the kd ([6]; 1:1 Langmuir model) of the same compound?
A: 2.45 ± 0.34 ×10^–3 s^–1

Q: What about the kon ([6]; 1:1 Langmuir model, read-out: ka) of the same compound?
A: 3340 ± 1020 M⁻¹ s⁻¹

Q: And the Kd ([6]; apparent KD)?
A: 840 ± 340 nM

Q: What about the EC50 (EV-A71 VP1 (P246S)) of the same compound?
A: 30 ± 10 nM

Q: What about the EC50 (HIV-1 (Ba-L)) of the same compound?
A: 36 nM

Q: And the CC50 (in vitro [7])?
A: > 100000 nM

Q: And the EC50 [8]?
A: > 50000 nM

Q: What about the EC50 (rhinovirus 14) of the same compound?
A: > 50000 nM

Q: What about the CC50 (in vitro [9]) of the same compound?
A: > 100000 nM

Q: What about the EC50 ([10]; BrCr lab strain, RD cells, 50% reduction of virus-induced CPE) of the same compound?
A: 40 ± 10 nM

Q: And the EC50 ([10]; BrCr wild type (cross-resistance study))?
A: 30 ± 10 nM

Q: What about the EC50 ([10]; enterovirus panel, enterovirus A71 BrCr strain, RD host cell) of the same compound?
A: 40 ± 7 nM

Q: And the EC50 ([10]; genogroup A, BrCr, RD cells (clinical isolate panel))?
A: 43 ± 6 nM

Q: What about the EC50 (rhinovirus 2) of the same compound?
A: > 50000 nM

Q: What about the EC50 (HIV-1 (NL4.3) [11]) of the same compound?
A: 33 nM

Q: What about the EC50 [12] of the same compound?
A: 120 ± 6 nM

Q: What about the IC50 [13] of the same compound?
A: > 100000 nM

Q: What about the IC50 (gp120-CD4 binding; SPR, 25 nM gp120, immobilized CD4, read-out: concentration inhibiting 50% of gp120-CD4 binding) of the same compound?
A: 10 to 40 nM

Q: What about the “times more potent than AL-471” value (gp120-CD4 binding; inhibition of gp120-CD4 binding) of the same compound?
A: at least 16

Q: And the EC50 [14]?
A: > 50000 nM

Q: What about the EC50 (EV-A71 VP1 (S184T)) of the same compound?
A: 100 ± 10 nM

Q: And the EC50 (EV-A71 VP1 (S184T/P246S))?
A: 60 ± 40 nM

Q: And the IC50 ([15]; HIV-1 NL4.3-infected MT-4 cells, flow cytometry, average, read-out: 447-52D IC50)?
A: 6800 nM

Q: And the inhibition at 0.16 µM ([15]; MT4, mAb 447-52D, 0.16 µM, Table S1, read-out: % inhibition of antibody binding)?
A: 16.9%

Q: And the inhibition at 0.8 µM ([15]; MT4, mAb 447-52D, 0.8 µM, Table S1, read-out: % inhibition of antibody binding)?
A: 23.9%

Q: What about the inhibition at 4 µM ([15]; MT4, mAb 447-52D, 4 µM, Table S1, read-out: % inhibition of antibody binding) of the same compound?
A: 36.5%

Q: And the inhibition at 20 µM ([15]; MT4, mAb 447-52D, 20 µM, Table S1, read-out: % inhibition of antibody binding)?
A: 76.9%

Q: And the “% inhibition of antibody binding” value ([15]; mAb 447-52D, 0.16 µM, Table S1, listed as AL-518, 0.16 µM)?
A: 17%

Q: What about the “% inhibition of antibody binding” value ([15]; mAb 447-52D, 20 µM, Table S1, listed as AL-518, 20 µM) of the same compound?
A: 77%

Q: What about the IC50 ([15]; mAb 447-52D, Table S1, read-out: IC50) of the same compound?
A: 6850 nM

Q: What about the EC50 (HIV-2 (ROD)) of the same compound?
A: ~60 nM

Q: And the IC50 ([16]; HIV-1 NL4.3-infected MT-4 cells, flow cytometry, average, read-out: 9284 IC50)?
A: 3800 nM

Q: What about the inhibition at 0.16 µM ([16]; MT4, mAb 9284, 0.16 µM, Table S2, read-out: % inhibition of antibody binding) of the same compound?
A: 25.1%

Q: And the inhibition at 0.8 µM ([16]; MT4, mAb 9284, 0.8 µM, Table S2, read-out: % inhibition of antibody binding)?
A: 37.9%

Q: And the inhibition at 4 µM ([16]; MT4, mAb 9284, 4 µM, Table S2, read-out: % inhibition of antibody binding)?
A: 51.4%

Q: What about the inhibition at 20 µM ([16]; MT4, mAb 9284, 20 µM, Table S2, read-out: % inhibition of antibody binding) of the same compound?
A: 61.1%

Q: What about the “% inhibition of antibody binding” value ([16]; mAb 9284, 0.16 µM, Table S2, listed as AL-518, 0.16 µM) of the same compound?
A: 25%

Q: What about the “% inhibition of antibody binding” value ([16]; mAb 9284, 20 µM, Table S2, listed as AL-518, 20 µM) of the same compound?
A: 61%

Q: What about the IC50 ([16]; mAb 9284, Table S2, read-out: IC50) of the same compound?
A: 3370 nM
